Experimental data as given in patent publication US20140335050A1, “METHODS, COMPOSITIONS, AND KITS FOR THE TREATMENT OF CANCER” (The General Hospital Corporation, priority 2011, published 2014).

Experiments:
Type in all cases: cell-based, human
MU89 cell line = assay: Western blot (BRAF, Melan-A/MART-1, TRP-2, phosphorylated MEK and ERK)
Description: A. Western blot performed on extracts of the MU89 cell line treated as indicated for three days. Extracts were probed with antibodies to BRAF, Melan-A/MART-1, TRP-2, or beta-Actin. 30 μg of total protein was loaded in each lane of the gel. […] B. Protein gel electrophoresis was performed using 30 μg of total protein extracts prepared from the indicated cell lines. Cells were untreated (control) or treated with 0.15 μg/ml of BIIB021 for three days. After transfer Western blots were probed with antibodies to phosphorylated MEK (p-MEK) or β-Actin.
FIG. 17 is a series of Western blots that show changes in protein levels and state of phosphorylation after treatment with an Hsp90 inhibitor. A primary Anti BRAF (H145) antibody was used at a 1:5000 dilution. A secondary Goat anti rabbit antibody was used at a dilution of 1:5000. […]
To address the effect of Hsp90 inhibition on the MAP kinase pathway, protein levels and signaling activity (protein phosphorylation levels) of the proteins in this pathway were analyzed directly. […]
Cell lysates were prepared using RIPA buffer from Santa Cruz (Santa Cruz, Calif.) containing protease and phosphatase inhibitors. Protein concentrations were determined using Bradford assay from BioRad (Hercules, Calif.). […] Sizes of proteins were determined by comparison to the Broad prestained protein standard ladder from BioRad (Hercules, Calif.).

Roth melanoma cell line = assay: Intracellular antibody staining and flow cytometry (gp100/HMB45); conditions: Roth (BRAF WT, NRAS M/M); 3 days; 17-AEP 0.50, CCT018159 2.50, PU-H71 0.25 μg/ml
Description: (§1) Several cell lines expressing varying native-sequences, (wild-type (WT) or mutant (M) alleles of these genes were evaluated), to determine if there is a relationship between levels of Hsp90 inhibitor-mediated antigen up-regulation and BRAF and NRAS mutational status. Mutant status of the NRAS and BRAF loci were determined previously.
(§2) Cells were plated at a density of 1×10^5 in 1 ml of medium in a 24-well plate and cultured for varying times as indicated in results. Typically, 3 days of culture in the presence of Hsp90 inhibitors was optimal for the functional studies performed. After incubation, cells were collected by trypsinization and then evaluated by flow cytometry.
(§3) Intracellular staining and flow cytometric analyses of cytoplasmic Melan-A/MART-1, and gp100 expression were performed as described previously. Cells were fixed with 1% formaldehyde, permeabilized with 0.1% saponin, stained with monoclonal antibodies to melanocyte antigens. Antibodies were obtained with specificity for: Melan-A/MART-1 from Vector Labs (Burlingame, Calif.); gp100/HMB45 from DakoCytomation (Carpinteria, Calif.) and then visualized with goat anti-mouse FITC-conjugated secondary antibody from Invitrogen (Frederick, Md.). The level of EGFP was determined by flow cytometry of unfixed cells washed and resuspended in 1×PBS. […]

MM455 melanoma cell line = assay: as above; conditions: MM455 (BRAF M/WT, NRAS WT); 3 days; 17-AEP 0.50, CCT018159 2.50, PU-H71 0.25 μg/ml
Description: as §1, §2, §3

tumor cell lines = assay: MHC Class I and Class II surface staining, statements over a panel of tumor cell lines; conditions: HeLa, MCF-7, U2-OS, MU-89, U118, Jurkat, Raji (Table 19)
Description: (§4) For surface staining of HLA Class I and II antigens, cells were harvested using CellStripper™ from Mediatech (Manassas, Va.). All staining steps were performed on ice. Following a first incubation with antibody to Class I (W6/32) or Class II (L243) for 30 minutes. Stained cells were washed twice with cold PBS and then stained with a goat anti-mouse FITC secondary antibody to allow for quantitative analysis by flow cytometry. For evaluation of cytoplasmic antigens, including Melan-A/MART-1 and gp100, cells were first fixed in paraformaldehyde and permeabilized with saponin as previously described. Staining for cytoplasmic antigens was carried out at room temperature (22° C.).

[1] = tested on: Raji B cell lymphoma cells; assay: Surface antibody staining and flow cytometry (MHC Class I/II)
Description: (§5) Intracellular staining and flow cytometric analyses of cytoplasmic Melan-A/MART-1, and gp100 expression were performed as described previously. Cells were fixed with 1% formaldehyde, permeabilized with 0.1% saponin, stained with monoclonal antibodies to melanocyte antigens. Antibodies were obtained with specificity for: Melan-A/MART-1 from Vector Labs (Burlingame, Calif.); gp100/HMB45 from DakoCytomation (Carpinteria, Calif.) and then visualized with goat anti-mouse FITC-conjugated secondary antibody from Invitrogen (Frederick, Md.). The level of EGFP was determined by flow cytometry of unfixed cells washed and resuspended in 1×PBS. Surface staining of MHC Class I was carried out using the antibody W6/32 on cells harvested with Cell Stripper from MediaTech Inc. (Manassas, Va.) and carried out on ice.
(§6) Cell were seeded at 1×10^6 cells in a T25 flask with 10 ml of media for the 4 day IFN-beta pre-treatments. Cells were then harvested and plated in 24 well plate at 1×10^5 cells per well in 1 ml of media for 3 day treatments.
as §4

U2-OS osteosarcoma cells = assay: as above
Description: as §5, §6, §4

[2] = tested on: EBV-19 B cell lymphoma cells; assay: as above; conditions: three days, IFN-β 5000 Units/ml
Description: as §5, §4

[3] = tested on: Jurkat T cell lymphoma cells; assay: as above
Description: as §5, §4

[4] = three days, IFN-β 5000 Units/ml, IFN-γ 100 ng/ml, PU-H71 0.3 mg/ml
[5] = U2-OS cells, Table 20, single agent or simultaneous combination
[6] = U2-OS, three days, IFN-β 5000 Units/ml, IFN-γ 100 ng/ml, PU-H71 0.3 mg/ml

For CO[C@H]1/C=C\C=C(/C)C(=O)NC2=CC(=O)C(NCCN3CCCC3)=C(C[C@@H](C)C[C@H](OC)[C@H](O)[C@@H](C)/C=C(\C)[C@@H]1OC(N)=O)C2=O [17-AEP], the “BRAF protein level (Western blot)” value (MU89 cell line; 3 days) was “reduces levels of BRAF” and the “Phosphorylated MEK and Phosphorylated ERK levels (Western blot)” value (MU89 cell line; 3 days (FIG. 17)) was “decreased levels”.

With CCc1cc(-c2n[nH]c(C)c2-c2ccc3c(c2)OCCO3)c(O)cc1O [CCT018159] the “HMB45, level of induction relative to untreated control cells” value (Roth melanoma cell line) was 1.95 and the “HMB45, level of induction relative to untreated control cells” value (MM455 melanoma cell line) was 1.16.

CC(C)NCCCn1c(Sc2cc3c(cc2I)OCO3)nc2c(N)ncnc21 [PU-H71] was tested, and the “Class II MHC expression over the tumor panel” value (tumor cell lines) was “no induction”, the “Class I MHC, geometric mean of surface staining (W6/32)” value (from here on “Class I MHC, geometric mean”) ([1]; 4 day IFN-β pre-treatment (5000 Units/ml), then 3 days with fresh IFN-β, with PU-H71 0.3 mg/ml where labelled (label IFN-β: no inhibitor)) was 129 and the “Class I MHC, geometric mean” value ([1]; 4 day IFN-β pre-treatment (5000 Units/ml), then 3 days without IFN-β, with PU-H71 0.3 mg/ml where labelled (label IFN-β: no inhibitor)) was 139. For the same molecule, the “L243 (MHC Class II surface staining)” value ([1]; single agent) was 79.0, the “Class I MHC, geometric mean” value ([1]; single agent for 3 days, no IFN-β pre-treatment, IFN-β 5000 Units/ml, PU-H71 0.3 mg/ml) was 157 and the “MHC Class I, geometric mean of surface staining (W6/32)” value (“MHC Class I, geometric mean” below) [1, 4] was 139. For the same molecule, the “MHC Class II, geometric mean of surface staining (L2443)” value (from here on “MHC Class II, geometric mean”) [1, 4] was 160, the “MHC Class I, geometric mean” value ([1]; three days, IFN-β 5000 Units/ml, PU-H71 0.075-0.3 mg/ml) was 79 and the “L243 (MHC Class II surface staining)” value (U2-OS osteosarcoma cells; [5]) was 1.9. For the same molecule, the “W6/32 (MHC Class I surface staining)” value (U2-OS osteosarcoma cells; [5]) was 109.0, the “Class I induction, combination” value (U2-OS osteosarcoma cells; U2-OS, PU-H71 in combination with interferons) was “highest levels are achieved” and the “Class II antigen induction seen with IFN-gamma, combination” value (U2-OS osteosarcoma cells; U2-OS, PU-H71 together with IFN-gamma) was “prevented”. For the same molecule, the “L243 (MHC Class II surface staining)” value (U2-OS osteosarcoma cells; U2-OS, single agent) was 1.8, the “MHC Class I, geometric mean” value (U2-OS osteosarcoma cells; [6]) was 87 and the “MHC Class II, geometric mean” value (U2-OS osteosarcoma cells; [6]) was 4. The “MHC Class I, geometric mean” value (U2-OS osteosarcoma cells; U2-OS, three days, IFN-β 5000 Units/ml, PU-H71 0.075-0.3 mg/ml) was 108, the “MHC Class II, geometric mean” value ([2]; IFN-γ 100 ng/ml, PU-H71 0.3 mg/ml) was 114 and the “MHC Class I, geometric mean” value ([2]; IFN-γ 100 ng/ml, PU-H71 0.3) was 124. The “MHC Class I, geometric mean” value ([2]; PU-H71 0.075-0.3) was 119, the “L243 (MHC Class II surface staining)” value ([3]; single agent) was 1.2 and the “MHC Class I, geometric mean” value ([3]; three days, IFN-β 5000 Units/ml, IFN-γ 100 ng/ml, PU-H71 0.3 μg/ml) was 24. For the same molecule, the “MHC Class II, geometric mean” value [3, 4] was 1 and the “MHC Class I, geometric mean” value ([3]; three days, IFN-β 5000 Units/ml, PU-H71 0.075-0.3 μg/ml) was 41.
